Source: the supplement of paper PMC4862054
Where “and” joins values, the source holds several entries; their conditions need not be identical. Equal values may be shown once.

Tests used:
Assay in all cases: normalised viability (% of control), CellTiter-Blue; higher = more viable cells (about 100 = DMSO control)
Conditions in all cases: incubation time: 72 h
CAL-148 [1] = tested on: CAL-148
Protocol: (§1)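 DSRT, CellTiter-Blue viability, 72 h incubation. Signal is normalised to DMSO and benzethonium chloride controls. Value is the normalised response at dose 8.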

CAL-51 [2] = tested on: CAL-51
Protocol: as §1

CAL-85-1 [3] = tested on: CAL-85-1
Protocol: as §1

DU-4475 [4] = tested on: DU-4475
Protocol: as §1

HDQ-P1 [5] = tested on: HDQ-P1
Protocol: as §1

MDA-MB-453 [6] = tested on: MDA-MB-453
Protocol: as §1

CAL-148 [7] = tested on: CAL-148; remark: listed apart in the source
Protocol: (§2)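 DSRT, CellTiter-Blue viability, 72 h incubation. Signal is normalised to DMSO and benzethonium chloride controls. Value is the normalised response at dose 6.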

CAL-51 [8] = tested on: CAL-51; remark: listed apart in the source
Protocol: as §2

CAL-85-1 [9] = tested on: CAL-85-1; remark: listed apart in the source
Protocol: as §2

DU-4475 [10] = tested on: DU-4475; remark: listed apart in the source
Protocol: as §2

HDQ-P1 [11] = tested on: HDQ-P1; remark: listed apart in the source
Protocol: as §2

MDA-MB-453 [12] = tested on: MDA-MB-453; remark: listed apart in the source
Protocol: as §2

| SMILES | normalised viability (CAL-148 [1]) | normalised viability (CAL-51 [2]) | normalised viability (CAL-85-1 [3]) | normalised viability (DU-4475 [4]) | normalised viability (HDQ-P1 [5]) | normalised viability (MDA-MB-453 [6]) | normalised viability (CAL-148 [7]) | normalised viability (CAL-51 [8]) | normalised viability (CAL-85-1 [9]) | normalised viability (DU-4475 [10]) | normalised viability (HDQ-P1 [11]) | normalised viability (MDA-MB-453 [12]) |
| --- | --- | --- | --- | --- | --- | --- | --- | --- | --- | --- | --- | --- |
| CO[C@@]12[C@H](COC(N)=O)C3=C(C(=O)C(C)=C(N)C3=O)N1C[C@@H]1N[C@@H]12 [Mitomycin C] (3000 nM) | 48.5% | 102% | 71.6% | 91.5% | 85.2% | 58.8% | – | – | – | – | – | – |
| CCNC(=O)c1noc(-c2cc(C(C)C)c(O)cc2O)c1-c1ccc(CN2CCOCC2)cc1 [NVP-AUY922] (30 nM) | – | – | – | – | – | – | 16% | 29.4% | 30.5% | 0.85% | 18% | 9.09% |
| CCNC(=O)c1noc(-c2cc(C(C)C)c(O)cc2O)c1-c1ccc(CN2CCOCC2)cc1 [NVP-AUY922] (300 nM) | 16.3% | 8.64% | 24.6% | 0.62% | 30.4% | 8.88% | – | – | – | – | – | – |
| CC1(C)CCC(c2ccc(Cl)cc2)=C(CN2CCN(c3ccc(C(=O)NS(=O)(=O)c4ccc(N[C@H](CCN5CCOCC5)CSc5ccccc5)c(S(=O)(=O)C(F)(F)F)c4)cc3)CC2)C1 [Navitoclax] (300 nM) | – | – | – | – | – | – | 90.4% | 99.9% | 75.2% | 47.2% | 50.2% | 78.1% |
| CC1(C)CCC(c2ccc(Cl)cc2)=C(CN2CCN(c3ccc(C(=O)NS(=O)(=O)c4ccc(N[C@H](CCN5CCOCC5)CSc5ccccc5)c(S(=O)(=O)C(F)(F)F)c4)cc3)CC2)C1 [Navitoclax] (3000 nM) | 71% | 95.3% | 87.8% | 20.1% | 43.5% | 70.3% | – | – | – | – | – | – |
| Cc1cn(-c2cc(NC(=O)c3ccc(C)c(Nc4nccc(-c5cccnc5)n4)c3)cc(C(F)(F)F)c2)cn1 [Nilotinib] (300 nM) | – | – | – | – | – | – | 94.6% and 101% | 109% and 112% | 92.1% and 86% | 90.1% and 113% | 47.2% and 70.8% | 94.5% and 91.4% |
| Cc1cn(-c2cc(NC(=O)c3ccc(C)c(Nc4nccc(-c5cccnc5)n4)c3)cc(C(F)(F)F)c2)cn1 [Nilotinib] (3000 nM) | 83.9% and 89.2% | 108% and 115% | 69.3% and 78.6% | 97.8% and 107% | 67.9% and 66.5% | 87.6% and 97.1% | – | – | – | – | – | – |
| C=CCN(/C=C1/C(=O)O[C@H](COC)[C@@]2(C)C1=C(O)C(=O)C1=C2[C@H](OC(C)=O)C[C@]2(C)C(=O)CC[C@@H]12)CC=C [PX-866] (300 nM) | – | – | – | – | – | – | 116% | 110% | 103% | 93% | 75.8% | 112% |
| C=CCN(/C=C1/C(=O)O[C@H](COC)[C@@]2(C)C1=C(O)C(=O)C1=C2[C@H](OC(C)=O)C[C@]2(C)C(=O)CC[C@@H]12)CC=C [PX-866] (3000 nM) | 108% | 107% | 102% | 95.4% | 70.2% | 114% | – | – | – | – | – | – |
| CC[C@H](CO)Nc1nc(NCc2ccccc2)c2ncn(C(C)C)c2n1 [Roscovitine] (300 nM) | – | – | – | – | – | – | 88.6% | 104% | 93.7% | 97.5% | 59.7% | 86.9% |
